Measurements published in publication PMC12562379, “Facile Synthesis of N-vinylindoles via Knoevenagel Condensation: Molecular Features and Biological Activities” (International Journal of Molecular Sciences, 2025).
≈ marks a conversion by molar mass, not a printed value. Structures can show the parent of a compound that is named as a salt. Where two headings read alike, the source gives them in different places.

What was measured:
S. aureus ATCC 6535 = experiment: Microbroth dilution assay; type: cell-based; settings: Staphylococcus aureus, ATCC6535
S. aureus MRSA 12673 = experiment: Microbroth dilution assay; type: cell-based; settings: Staphylococcus aureus
E. coli ATCC 8739 = experiment: Microbroth dilution assay; type: cell-based; settings: Escherichia coli, ATCC8739
Procedure: (§1) The minimum inhibitory concentration (MIC) and minimum bactericidal/fungicidal concentration (MBC/MFC) of the tested compounds were determined by the microbroth dilution technique using 96-well plates based on the methodology described in the EUCAST (European Committee on Antimicrobial Susceptibility Testing) standards. Reference and clinical strains of Gram-positive (Staphylococcus aureus ATCC 6538, Staphylococuccus aureus MRSA 6347) and Gram-negative (Escherichia coli ATCC 8739) bacteria, and yeast (Candida albicans ATCC 10231, Candida glabrata ATCC 2001) were used for the assay. The studies were carried out in the Mueller–Hinton (MH) broth for bacteria and RPMI 1640 broth + MOPS (Sigma-Aldrich, Poland) buffer in the case of yeast. The dry test samples were dissolved in DMSO (dimethyl sulfoxide), resulting in a final concentration of 15 mg/mL, and then diluted in a geometric progression. Ampicillin (Sigma-Aldrich, Poland) acted as a control sample (512 to 4 µg/mL) for bacteria and ketoconazole (128 to 1 µg/mL) (Sigma-Aldrich, Poland) acted as a control sample for yeast. The cultures of microorganisms were prepared by transferring cells from the stock cultures to tubes with the appropriate broth and incubated with agitation in an aerobic atmosphere for 18 ± 2 h at 35 ± 1 °C; next, they were diluted to achieve an optical density corresponding to 5 × 105 (bacteria) or 2 × 105 (yeast) colony-forming units per mL (cfu/mL). An appropriate media (96 µL), along with the tested compounds with a final concentration range of 300–3.1 µg/mL (4 µL) and next microbial suspension (100 µL) were added to each well. Plates with samples were incubated in adequate conditions described above and microbial growth was assessed. […] (>90%; ketoconazole) but 50% (for other compounds) inhibits visible growth of yeasts. Next, as a control of microbial viability, 100 µL of the samples from each well without growth was inoculated on the MH or RPMI agar plates and incubated for 18 ± 2 h at 35 ± 1 °C and finally, the CFU was counted. The MBC/MFC was determined as the minimum concentration of compounds required to kill 99.9% the organisms.

C. albicans ATCC 10231 = experiment: Microbroth dilution assay; type: cell-based, Candida albicans; settings: Candida albicans, ATCC10231, C. albicans ATCC 10231; for MFC: read-out: MFC; for MIC: read-out: MIC
Procedure: as §1

SKOV-3 = experiment: MTT assay, cytotoxic activity; type: cell-based, human; settings: SKOV-3, MTT, 24 h, n = 12; for IC50: Homo sapiens, SK-OV-3
Procedure: (§2) The human ovarian SKOV-3, gastric adenocarcinoma AGS, cervical HeLa cell lines and non-cancerous keratinocytes HaCaT were obtained from the American Type Culture Collection (ATCC, Manassas, VA, USA). The cell lines were cultured in McCoy’s Medium, Dulbecco’s Modified Eagle’s Medium/F12, and DMEM, respectively (Merck Millipore, Burlington, MA, USA). Penicillin (100 units/mL), streptomycin ([…]), and 10% (v/v) fetal bovine serum (FBS) were added to all the media. The cells were incubated at 37 °C and 5% CO2.
(§3) To estimate the cytotoxic activity of the obtained compounds 2a-i, MTT assay was used. The cells (5 × 10^3 cells/well) were treated with the compounds in a range of concentrations 1–150 µg/mL. […] After 24 h, MTT solution (0.5 mg/mL) was added to the cells. Formazan crystals were dissolved in DMSO and the absorbance was measured with a microtiter plate reader (Epoch, BioTek Instruments, Winooski, VT, USA).

AGS = experiment: MTT assay, cytotoxic activity; type: cell-based, human; settings: 24 h, n = 12; for IC50: Homo sapiens
Procedure: as §2, §3

HeLa = experiment: MTT assay, cytotoxic activity; type: cell-based, human; settings: 24 h, n = 12; for IC50: Homo sapiens
Procedure: as §2, §3

C. glabrata ATCC 2001 = experiment: Microbroth dilution assay; type: cell-based, Candida glabrata; settings: Nakaseomyces glabratus, ATCC2001
Procedure: as §1

HaCaT = experiment: MTT assay, cytotoxic activity on non-cancerous keratinocytes; type: cell-based; settings: Homo sapiens, 24 h, n = 12
Procedure: as §2, §3

[1] = test system: HeLa, SKOV-3, AGS (and HaCaT) cell lines; experiment: MTT assay, ranges stated over several cell lines; type: cell-based, human; settings: for IC50: Homo sapiens
Procedure: as §2, §3

[2] = target: T1, AGE2-BSA/sRAGE interaction (Homo sapiens, UniProt Q15109); experiment: ELISA AGE2-BSA/sRAGE inhibitory screening; type: binding
T1 construct: purchased Creative BioMart
T1 sequence (Q15109 23-342 limits assumed): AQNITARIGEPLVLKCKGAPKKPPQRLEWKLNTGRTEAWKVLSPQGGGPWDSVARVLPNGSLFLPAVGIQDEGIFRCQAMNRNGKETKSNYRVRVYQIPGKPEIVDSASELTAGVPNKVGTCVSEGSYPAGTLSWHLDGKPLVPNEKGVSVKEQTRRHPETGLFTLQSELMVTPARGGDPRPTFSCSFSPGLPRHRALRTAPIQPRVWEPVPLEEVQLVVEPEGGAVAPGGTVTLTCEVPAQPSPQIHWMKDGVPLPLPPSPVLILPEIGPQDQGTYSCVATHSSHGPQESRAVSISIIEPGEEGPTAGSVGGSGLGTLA
Procedure: The in vitro inhibitor screening of AGE2 (glyceraldehyde-modified AGE)-sRAGE interaction (soluble RAGE) was performed using a 96-well AGE-BSA-coated plate (Creative BioMart® ELISA kit, Shirley, NY, USA), according to the manufacturer’s instructions. 100 UA/mL soluble RAGE (sRAGE) was incubated with 100 μM of the tested compounds or 0.05% DMSO as a negative control on an AGE2-BSA-coated plate at room temperature for 60 min, shaking at 300 rpm on an orbital microplate shaker. After incubation, the wells were washed 4 times with wash buffer and horseradish peroxidase (HRP)-labeled anti-RAGE antibody was added and the plate was further incubated at room temperature for 60 min, shaking at 300 rpm on an orbital microplate shaker. After incubation, the wells were washed 4 times with wash buffer and the Substrate Reagent was added to each well. After an incubation at room temperature for 5 min, the HRP-labeled antibody sRAGE-AGE complex was then detected by measuring the absorbance at 450 nm using the microplate reader Varioskan (Thermo Fischer Scientific). These experiments were repeated two times.

[3] = S. aureus MRSA 12673, read-out: MIC
[4] = E. coli ATCC 8739, read-out: MIC
[5] = range over the cancer cell lines HeLa, SKOV-3 and AGS
[6] = range over HeLa and SKOV-3 cell lines

| Structure (SMILES) | MBC (S. aureus ATCC 6535) | MIC (S. aureus ATCC 6535) | MBC (S. aureus MRSA 12673; S. aureus MRSA 12673) | MBC (E. coli ATCC 8739; E. coli ATCC 8739) | MFC (C. albicans ATCC 10231) | MIC (C. albicans ATCC 10231) | MIC (S. aureus MRSA 12673; [3]) | IC50 (SKOV-3) | IC50 (AGS) | IC50 (HeLa) | MFC (C. glabrata ATCC 2001) | MIC (C. glabrata ATCC 2001) | MIC (E. coli ATCC 8739; [4]) | IC50 (HaCaT) | further results |
| --- | --- | --- | --- | --- | --- | --- | --- | --- | --- | --- | --- | --- | --- | --- | --- |
| CC1(C)S[C@@H]2[C@H](NC(=O)[C@H](N)c3ccccc3)C(=O)N2[C@H]1C(=O)O [Ampicillin, reference compound] | 8 mg/L (≈ 22.9 µM) | 8 mg/L (≈ 22.9 µM) | 512 mg/L (≈ 1470 µM) | 128 mg/L (≈ 366 µM) | – | – | – | – | – | – | – | – | – | – | MIC (S. aureus MRSA 12673; MRSA): 512 mg/L (≈ 1470 µM); MIC (E. coli ATCC 8739): 128 mg/L (≈ 366 µM) |
| C(=C(\C1=NCCN1)n1ccc2ccccc21)/c1ccccc1 [Compound 2a, (Z)-1-[1-(4,5-dihydro-1H-imidazol-2-yl)-2-(phenyl)vinyl]-1H-indole] | 220 mg/L (≈ 766 µM) | 110 mg/L (≈ 383 µM) | > 220 mg/L | 220 mg/L (≈ 766 µM) | > 220 mg/L | > 220 mg/L | 220 mg/L (≈ 766 µM) | 9.81 ± 0.45 mg/L (≈ 34.1 µM) | 17.2 ± 0.68 mg/L (≈ 60 µM) | 8.96 ± 0.33 mg/L (≈ 31.2 µM) | > 220 mg/L | > 220 mg/L | 220 mg/L (≈ 766 µM) | 11.7 ± 1.31 mg/L (≈ 40.7 µM) | – |
| Cc1ccc(/C=C(/C2=NCCN2)n2ccc3ccccc32)cc1 [Compound 2b, (Z)-1-[1-(4,5-dihydro-1H-imidazol-2-yl)-2-(p-tolyl)vinyl]-1H-indole] | 110 mg/L (≈ 365 µM) | 55 mg/L (≈ 182 µM) | > 220 mg/L | > 220 mg/L | > 220 mg/L | 220 mg/L (≈ 730 µM) | 220 mg/L (≈ 730 µM) | 9.69 ± 0.62 mg/L (≈ 32.2 µM) | 16.2 ± 1.2 mg/L (≈ 53.8 µM) | 8.19 ± 0.4 mg/L (≈ 27.2 µM) | > 220 mg/L | 220 mg/L (≈ 730 µM) | 220 mg/L (≈ 730 µM) | 12.1 ± 0.55 mg/L (≈ 40.1 µM) | IC50 [1, 5]: 8.19 to 16.2 mg/L (≈ 27.2 to 53.8 µM); Inhibition (%) of AGE2-BSA/sRAGE interaction ([2]; 100 µM): devoid of activity and lack |
| COc1ccc(/C=C(/C2=NCCN2)n2ccc3ccccc32)cc1 [Compound 2c, (Z)-1-[1-(4,5-dihydro-1H-imidazol-2-yl)-2-(4-methoxyphenyl)vinyl]-1H-indole] | 110 mg/L (≈ 347 µM) | 110 mg/L (≈ 347 µM) | > 220 mg/L | > 220 mg/L | > 220 mg/L | > 220 mg/L | > 220 mg/L | 8.8 ± 0.46 mg/L (≈ 27.7 µM) | 10.29 ± 0.08 mg/L (≈ 32.4 µM) | 7.86 ± 0.59 mg/L (≈ 24.8 µM) | > 220 mg/L | > 220 mg/L | 220 mg/L (≈ 693 µM) | 9.11 ± 1.58 mg/L (≈ 28.7 µM) | – |
| Fc1ccc(/C=C(/C2=NCCN2)n2ccc3ccccc32)cc1 [Compound 2d, (Z)-1-[1-(4,5-dihydro-1H-imidazol-2-yl)-2-(4-fluorophenyl)vinyl]-1H-indole] | 240 mg/L (≈ 786 µM) | 120 mg/L (≈ 393 µM) | > 240 mg/L | > 240 mg/L | > 240 mg/L | > 240 mg/L | 120 mg/L (≈ 393 µM) | 10.2 ± 0.45 mg/L (≈ 33.6 µM) | 15.5 ± 0.72 mg/L (≈ 50.7 µM) | 8.65 ± 0.68 mg/L (≈ 28.3 µM) | > 240 mg/L | > 240 mg/L | 240 mg/L (≈ 786 µM) | 7.37 ± 0.28 mg/L (≈ 24.1 µM) | IC50 [1, 5]: 8.65 to 15.5 mg/L (≈ 28.3 to 50.7 µM); inhibition at 100 µM [2]: 12% |
| Clc1ccc(/C=C(/C2=NCCN2)n2ccc3ccccc32)cc1 [Compound 2e, (Z)-1-[2-(4-chlorophenyl)-1-(4,5-dihydro-1H-imidazol-2-yl)vinyl]-1H-indole] | 60 mg/L (≈ 186 µM) | 30 mg/L (≈ 93.2 µM) | 240 mg/L (≈ 746 µM) | 240 mg/L (≈ 746 µM) | 240 mg/L (≈ 746 µM) | 120 mg/L (≈ 373 µM) | 60 mg/L (≈ 186 µM) | 4.4 ± 0.16 mg/L (≈ 13.7 µM) | 11.4 ± 0.74 mg/L (≈ 35.3 µM) | 3.13 ± 0.3 mg/L (≈ 9.73 µM) | 240 mg/L (≈ 746 µM) | 240 mg/L (≈ 746 µM) | 120 mg/L (≈ 373 µM) | 3.43 ± 0.05 mg/L (≈ 10.7 µM) | IC50 [1, 6]: 3.13 to 4.4 mg/L (≈ 9.73 to 13.7 µM); inhibition at 100 µM [2]: 34.7% |
| O=[N+]([O-])c1ccc(/C=C(/C2=NCCN2)n2ccc3ccccc32)cc1 [Compound 2g, (Z)-1-[1-(4,5-dihydro-1H-imidazol-2-yl)-2-(4-nitrophenyl)vinyl]-1H-indole] | 110 mg/L (≈ 331 µM) | 55 mg/L (≈ 165 µM) | > 220 mg/L | > 220 mg/L | > 220 mg/L | > 220 mg/L | 110 mg/L (≈ 331 µM) | 7.06 ± 0.62 mg/L (≈ 21.2 µM) | 10.14 ± 0.08 mg/L (≈ 30.5 µM) | 5.6 ± 0.57 mg/L (≈ 16.8 µM) | > 220 mg/L | > 220 mg/L | 220 mg/L (≈ 662 µM) | 9.15 ± 0.74 mg/L (≈ 27.5 µM) | IC50 [1, 6]: 5.6 to 7.06 mg/L (≈ 16.8 to 21.2 µM) |
| CC(=O)N1CCN(c2ccc(OCC3COC(Cn4ccnc4)(c4ccc(Cl)cc4Cl)O3)cc2)CC1 (centres unmarked) [Ketoconazole, reference compound] | – | – | – | – | > 128 mg/L | > 128 mg/L | – | – | – | – | 128 mg/L (≈ 241 µM) | 64 mg/L (≈ 120 µM) | – | – | – |
| O=C1[O][Pt]2([NH][C@@H]3CCCC[C@H]3[NH]2)[O]C1=O [Oxaliplatin, reference compound] | – | – | – | – | – | – | – | – | – | – | – | – | – | – | IC50 (range over cell lines) [1, 6]: 35.76 to 102.16 mg/L; IC50 ± SD (SKOV-3): 102.16 ± 9.26 mg/L; IC50 ± SD (AGS): 17.90 ± 1.20 mg/L; IC50 ± SD (HeLa): 35.76 ± 1.72 mg/L |
| CC[C@]1(O)C[C@@H]2CN(CCc3c([nH]c4ccccc34)[C@@](C(=O)OC)(c3cc4c(cc3OC)N(C)[C@H]3[C@@](O)(C(=O)OC)[C@H](OC(C)=O)[C@]5(CC)C=CCN6CC[C@]43[C@@H]65)C2)C1 [Vinblastine sulfate, reference compound] | – | – | – | – | – | – | – | 0.008 ± 0.0003 mg/L | – | 0.005 ± 0.0004 mg/L | – | – | – | – | – |
